Measurements: US7432303B2, “Chalcone and its analogs as agents for the inhibition of angiogenesis and related disease states” (James and Emory University, priority 1999, dated 2008)
Like-named read-outs stand apart in the source and are kept apart here.

System: SVR cells
Experiment: SVR cell assay: cell numbers counted at 48 hours, percent inhibition versus control
Assay type: cell-based, murine
Conditions: for inhibition at 1 µg/mL / inhibition at 3 µg/mL / inhibition at 6 µg/mL: Mus musculus; for inhibition at 1 µg/mL: read-out: Percent Inhibition at a Specified Density (μg/ml): 1; for inhibition at 3 µg/mL: read-out: Percent Inhibition at a Specified Density (μg/ml): 3; for inhibition at 6 µg/mL: read-out: Percent Inhibition at a Specified Density (μg/ml): 6; for Percent Inhibition at a Specified Density (μg/ml): 9: 9 μg/ml
[1] = 1 μg/ml, 10,000 SVR cells in 24 well dish, counted at 48 hours
[2] = 3 μg/ml, 10,000 SVR cells in 24 well dish, counted at 48 hours
[3] = 6 μg/ml, 10,000 SVR cells in 24 well dish, counted at 48 hours
[4] = 10,000 SVR cells in 24 well dish, counted at 48 hours

Description: In the case of testing the anti-angiogenic/anti-cancer activity of compounds according to the present invention, an assay based on SVR cells may be employed. […] The cell numbers are counted and compared against controls. Percent inhibition is readily determined from the data obtained.
10,000 SVR cells were seeded in a 24 well dish [Arbiser, et al., J. Am. […] The cell numbers were counted at 48 hours.

Structure (SMILES) | inhibition at 1 µg/mL [1] | inhibition at 3 µg/mL [2] | inhibition at 6 µg/mL [3] | Percent Inhibition at a Specified Density (μg/ml): 3 [2] | Percent Inhibition at a Specified Density (μg/ml): 6 [3] | other results
O=C(O)Cc1ccc(C(=O)/C=C/c2ccccc2)cc1 [Compound 17, 4′-Carboxymethylchalcone] | 13.7% | 3.8% | 29.7% | – | – | –
O=C(O)/C=C/c1ccccc1 [Compound 10, trans-Cinnamic Acid, reference compound] | 18.6% | 14.1% | 69.6% | – | – | –
O=C(/C=C/c1ccccc1)/C=C/c1ccccc1 [Compound 3, 1,5-Diphenyl-1E,4E-pentadien-3-one] | 79.3% | 96.8% | 96.8% | – | – | –
Cc1cccc(C)c1/C=C/C(=O)c1ccccc1 [Compound 23, 2,6-Dimethylchalcone] | 47.7% | 57.9% | 89.6% | – | – | –
Cc1ccc(C(=O)/C=C/c2ccc(Cl)cc2)cc1 [Compound 30, 4-Chloro-4′-methylchalcone] | 22.3% | 24.5% | 46.5% | – | – | –
O=C1C(=Cc2cccc3ccccc23)CCc2ccccc21 [Compound 70, 2-(1-Naphthylidene)tetralone] | – | – | – | 15.9% | 23.6% | Percent Inhibition at a Specified Density (μg/ml): 1 [1]: 18.7%
O=C1C(=Cc2ccccc2)CCc2ccccc21 [Compound 68, 2-(Benzylidene)tetralone] | – | – | – | 57.9% | 97.5% | Percent Inhibition at a Specified Density (μg/ml): 9 [4]: 96.7%
O=C(O)C=Cc1ccc(Br)cc1 [Compound 11, para-Bromocinnamic Acid, reference compound] | 18.2% | 3.5% | 0% | – | – | –
CC(=O)c1cc2cc(Br)ccc2oc1=O [Compound 12, 3-Acetyl-6-bromocoumarin, reference compound] | 20% | 12.7% | 17.4% | – | – | –
O=C(C=Cc1ccccn1)c1ccccn1 [Compound 46, 1,3-Di(2-pyridyl)propenone] | – | – | – | 53.4% | 85.2% | Percent Inhibition at a Specified Density (μg/ml): 1 [1]: 0.0%
O=C(C=Cc1c(Cl)cccc1Cl)c1ccc2ccccc2c1 [Compound 59, 3-(2,6-Dichlorophenyl)-1-(2-naphthyl)propenone] | – | – | – | 81.0% | 97.4% | Percent Inhibition at a Specified Density (μg/ml): 9 [4]: 98.3%
O=C(/C=C/c1c(Cl)cccc1Cl)/C=C/c1c(Cl)cccc1Cl [Compound 73, 1,5-Bis(2,6-dichlorophenyl)-1E,4E-pentadien-3-one] | 60.7% | 87.1% | 90.4% | – | – | –
O=C1C(=Cc2c(Cl)cccc2Cl)CCc2ccccc21 [Compound 69, 2-(2,6-Dichlorobenzylidene)tetralone] | – | – | – | 37.0% | 53.7% | Percent Inhibition at a Specified Density (μg/ml): 1 [1]: 32.8%
O=C(/C=C/c1ccccc1)c1ccccc1 [Compound 1, Chalcone] | 71.6% | 92.8% | 94.4% | – | – | –
Cc1ccc(C(=O)/C=C/c2ccccc2Cl)c(C)c1 [Compound 21, 2-Chloro-2′,4′-dimethylchalcone] | 29.6% | 25.2% | 73.4% | – | – | –
O=C(/C=C/c1ccc(OCc2ccccc2)cc1)c1ccc(Cl)cc1 [Compound 25, 4-Benzyloxy-4′-chlorochalcone] | 25.6% | 4.4% | 62.9% | – | – | –

Structure (SMILES) | inhibition at 1 µg/mL [1] | inhibition at 3 µg/mL [2] | inhibition at 6 µg/mL [3] | Percent Inhibition at a Specified Density (μg/ml): 3 [2] | Percent Inhibition at a Specified Density (μg/ml): 6 [3] | other results
O=C(/C=C/c1ccccc1)c1c(F)c(F)c(F)c(F)c1F [Compound 36, 2′,3′,4′,5′,6′-Pentafluorochalcone] | 6.6% | 55.6% | 88.7% | – | – | –
COc1cccc(OC)c1/C=C/C(=O)c1c(OC)cccc1OC [Compound 37, 2,2′,6,6′-Tetramethoxychalcone] | 36.2% | 49.2% | 39.2% | – | – | –
N#Cc1coc2c(Cl)cc(Cl)cc2c1=O [Compound 16, 6,8-Dichloro-3-cyanochromone, reference compound] | 15.2% | 0% | 0% | – | – | –
O=C(C=Cc1ccccn1)c1ccccc1 [Compound 47, 1-Phenyl-3-(2-pyridyl)propenone] | – | – | – | 89.1% | 96.9% | Percent Inhibition at a Specified Density (μg/ml): 1 [1]: 40.7%
O=C(C=Cc1c2ccccc2cc2ccccc12)c1c2ccccc2cc2ccccc12 [Compound 53, 1,3-Di(9-Anthryl)propenone] | – | – | – | 0.0% | 4.7% | Percent Inhibition at a Specified Density (μg/ml): 1 [1]: 0.0%
O=C1C(=Cc2c(Cl)cccc2Cl)CCCC1=Cc1c(Cl)cccc1Cl [Compound 76, 2,6-Bis(2,6-dichlorobenzylidene)cyclohexanone] | 8.4% | 29.8% | 27.1% | – | – | –
O=C(/C=C/c1ccccc1)c1c(Cl)cccc1Cl [Compound 33, 2′,6′-Dichlorochalcone] | 2.23% | 51.1% | 88.7% | – | – | –
O=C(/C=C/c1ccco1)/C=C/c1ccco1 [Compound 74, 1,5-Di(2-furyl)-1E,4E-pentadien-3-one] | 0% | 9.3% | 56.5% | – | – | –
CC(=O)C(=Cc1ccccc1)C(C)=O [Compound 9, 3-Benzylidene-2,4-pentanedione] | 48.3% | 72% | 82.7% | – | – | –
CC(=O)/C=C/c1ccccc1 [Compound 5, 4-Phenyl-3E-buten-2-one] | – | – | – | – | – | inhibition at 1 µg/mL (SVR, 48 h): 41.9%; inhibition at 3 µg/mL (SVR, 48 h): 69%; inhibition at 6 µg/mL (SVR, 48 h): 64%
O=C(C=Cc1cccc2ccccc12)c1cccc2ccccc12 [Compound 65, 1,3-Di(1-naphthyl)propenone] | – | – | – | 55.5% | 60.3% | Percent Inhibition at a Specified Density (μg/ml): 1 [1]: 12.0%
O=C(/C=C/c1ccccc1)c1cccc(C(F)(F)F)c1 [Compound 18, 3′-(Trifluoromethyl)chalcone] | 42.2% | 87.4% | 96.9% | – | – | –
O=C(C=Cc1ccccc1)c1ccc2ccccc2c1 [Compound 61, 1-(2-Naphthyl)-3-phenylpropenone] | – | – | – | 92.2% | 94.7% | Percent Inhibition at a Specified Density (μg/ml): 9 [4]: 96.0%
O=C(/C=C/c1c(F)cccc1Cl)/C=C/c1c(F)cccc1Cl [Compound 72, 1,5-Di(2-chloro-6-fluorophenyl)-1E,4E-pentadien-3-one] | 57% | 70.6% | 86.6% | – | – | –
O=C1C(=Cc2c(Cl)cccc2Cl)COc2ccccc21 [Compound 67, 3-(2,6-Dichlorobenzylidene)chromanone] | – | – | – | 3.6% | 12.5% | Percent Inhibition at a Specified Density (μg/ml): 1 [1]: 5.4%
